ChEMBL document CHEMBL4483862, “Open-source discovery of chemical leads for next-generation chemoprotective antimalarials” (2018)

Test system: Plasmodium berghei
Assay: Luciferase/luciferin-expressing antifolate-resistant parasites were used to infect a culture of HepG2 cells that were pre-incubated with compounds. Infected hepatocytes emit light due to the luciferase reaction. Assay results are presented as the percent inhibition of light emission compared to control. […]
Type: functional
Conditions: sporozoite; for IC50: read-out: LUCIFERASE INFECTION ASSAY - IC50; for IC90: read-out: LUCIFERASE INFECTION ASSAY - IC90

SMILES	IC50 [µM]	IC90 [µM]
CN(C)c1cccc(-c2ccc3nnc(-c4cscn4)n3c2)c1	> 10	> 10
COc1ccc(-c2ccc3nnc(-c4cscn4)n3c2)c(C)c1	> 10	> 10
CNc1nc2cnc(Nc3cccc(C(C)C)c3)cc2n1Cc1ccco1	> 10	> 10
CC(C)c1ccc(-c2ccc3nnc(-c4ccc5nccnc5c4)n3c2)cc1	> 10	> 10
CC(=O)c1ccc(NC(=O)Nc2ccc3nc(-c4cccc(F)c4)nn3c2)cc1	5.52	> 10
CNc1nc2cnc(Nc3ccccc3Cl)cc2n1CC1CC1	> 10	> 10
COc1ccc(CNc2nc3cnc(Nc4ccc(F)c(Cl)c4)cc3n2C)cc1OC	> 10	> 10
CNc1nc2cnc(Nc3cccc(C)c3)cc2n1-c1cc(OC)c(OC)c(OC)c1	> 10	> 10
CNc1nc2cnc(Nc3cc(OC)cc(C(F)(F)F)c3)cc2n1Cc1ccco1	> 10	> 10
CCCCc1[nH]nc2ccnc(-c3ccsc3)c12	> 10	> 10
Cn1c(NCc2ccccc2F)nc2cnc(Nc3cccc(OC(F)(F)F)c3)cc21	> 10	> 10
Clc1cccc(-c2cc3[nH]c(NCc4ccccc4)nc3cn2)c1	> 10	> 10
COc1cc(NC(=O)Nc2ccc3nc(-c4ccoc4)nn3c2)cc(OC)c1OC	> 10	> 10
COc1cc(-c2nccc3n[nH]c(-c4cccc(OC(F)(F)F)c4)c23)cc(OC)c1OC	> 10	> 10
CC(C)c1cccc(-c2ccc3nnc(-c4ccc(OCCCN(C)C)cc4)n3c2)c1	> 10	> 10
Cn1c(Nc2cccc(C(F)(F)F)c2)nc2cnc(-c3ccoc3)cc21	> 10	> 10
Cn1c(NCc2ccccc2)nc2cnc(-c3ccsc3)cc21	> 10	> 10
c1cncc(Cn2cnc3cnc(Nc4cccnc4)cc32)c1	> 10	> 10
COc1cc(Nc2cc3c(cn2)nc(NCc2ccccc2)n3C)cc(C(F)(F)F)c1	> 10	> 10
Cc1[nH]nc2ccnc(-c3cccc(OC(F)(F)F)c3)c12	> 10	> 10
CNc1nc2cnc(Nc3cc(C(F)(F)F)ccc3F)cc2n1Cc1ccccc1	> 10	> 10
CNc1nc2cnc(Nc3cccc(C(C)=O)c3)cc2n1-c1cccc(F)c1	> 10	> 10

SMILES	IC50 [µM]	IC90 [µM]
O=C(Nc1cccc(C(F)(F)F)c1)Nc1ccc2nc(-c3ccncc3)nn2c1	> 10	> 10
CNc1nc2cnc(Nc3ccccc3)cc2n1-c1cccc(C(F)(F)F)c1	> 10	> 10
CC(=O)c1ccc(NC(=O)Nc2ccc3nc(-c4cccc(C(F)(F)F)c4)nn3c2)cc1	3.53	7.78
COc1cc(-c2nc3ccc(NC(=O)c4c(C)noc4C)cn3n2)cc(OC)c1OC	> 10	> 10
COc1cccc(NC(=O)c2cccc(C3(CNCc4ccccc4F)CC3)c2)c1	> 10	> 10
FC(F)(F)c1cccc(-c2ccc3nnc(-c4cccc(Cl)c4)n3c2)c1	> 10	> 10
COc1ccc(NC(=O)c2cccc(C3(CNc4ccccc4)CC3)c2)cn1	> 10	> 10
COc1cc(Nc2nc3cnc(-c4cccnc4)cc3n2C)cc(OC)c1OC	8.65	> 10
Cc1ccc(NC(=O)N2[C@@H]3CC[C@@H](C3)[C@H]2c2nc3cccc(OCc4ccccc4)c3[nH]2)cc1	> 10	> 10
COc1ccc(CNc2nc3cnc(Nc4ccc(OC(F)(F)F)cc4)cc3n2C)cc1OC	> 10	> 10
CCCCc1[nH]nc2ccnc(-c3ccc(OC)c(OC)c3)c12	0.979	1.3
CC(C)c1ccc(NC(=O)Nc2ccc3nc(-c4ccco4)nn3c2)cc1	> 10	> 10
Cn1nc(C(C)(C)C)cc1C(=O)Nc1ccc2nc(-c3cccs3)nn2c1	> 10	> 10
CC(C)c1ccc(-c2ccc3nnc(-c4ccc(OCCCN(C)C)cc4)n3c2)cc1	> 10	> 10
CNc1nc2cnc(Nc3ccc(OC)cc3C)cc2n1-c1cc(OC)c(OC)c(OC)c1	> 10	> 10
CNc1nc2cnc(Nc3ccc(F)c(Cl)c3)cc2n1-c1cccc(C(F)(F)F)c1	> 10	> 10
CNc1nc2cnc(Nc3cccc(N(C)C)c3)cc2n1-c1cc(OC)c(OC)c(OC)c1	> 10	> 10
CN(C)C(=O)c1ccc(Nc2cc3c(cn2)nc(-c2ccco2)n3C)cc1	> 10	> 10
O=C(Nc1ccc(OC(F)(F)F)cc1)Nc1ccc2nc(-c3ccoc3)nn2c1	10	> 10
CNc1nc2cnc(Nc3cccc(N(C)C)c3)cc2n1-c1cccc(C(F)(F)F)c1	> 10	> 10
Cn1c(NCc2ccccc2F)nc2cnc(-c3ccc(Cl)cc3)cc21	> 10	> 10
O=C(NCC1CC1)c1cccc(C2(CNCCCN3CCOCC3)CC2)c1	> 10	> 10

SMILES	IC50 [µM]	IC90 [µM]
Cc1ccc(NC(=O)Nc2ccc3nc(-c4ccccc4)nn3c2)cc1	> 10	> 10
O=C(Nc1cccc(F)c1)Nc1ccc2nc(-c3cccnc3)nn2c1	> 10	> 10
CNc1nc2cnc(-c3ccc(O)c(OC)c3)cc2n1Cc1ccccc1	3.17	3.99
COc1ccc(CNC(=O)c2ccc(C3(CNc4cccc(OC)c4)CC3)cc2)cc1	> 10	> 10
COc1ccc(-c2nc3ccc(NC(=O)Nc4ccc(OC)c(OC)c4)cn3n2)cc1	> 10	> 10
CNc1nc2cnc(Nc3ccc(Oc4ccccc4)cc3)cc2n1C	> 10	> 10
CN(C)c1ccc(-c2cc3c(cn2)nc(NCc2ccccc2)n3C)cc1	> 10	> 10
FC(F)(F)Oc1cccc(-c2[nH]nc3ccnc(-c4ccsc4)c23)c1	> 10	> 10
CC(C)c1cccc(Nc2nnc(C(O)c3ccccc3Cl)s2)c1 (stereo not given)	> 10	> 10
COc1ccccc1-c1nc2ccc(NC(=O)c3cc(C(C)(C)C)nn3C)cn2n1	> 10	> 10
COc1ccc(OC)c(CCNc2nc3cnc(-c4cccc(NS(C)(=O)=O)c4)cc3n2C)c1	> 10	> 10
COc1ccc(NC(=O)Nc2ccc3nc(-c4ccccc4)nn3c2)cc1OC	> 10	> 10
O=C(NCc1ccccc1)c1cccc(C2(CNc3cccc(OC(F)(F)F)c3)CC2)c1	> 10	> 10
Cn1c(Cc2ccccc2)nc2cnc(Nc3cccc(C(F)(F)F)c3)cc21	> 10	> 10
Cc1occc1NC(=O)N1[C@@H]2CC[C@@H](C2)[C@H]1c1nc2cccc(OCc3ccc(F)cc3)c2[nH]1	> 10	> 10
Cn1c(Nc2ccccc2)nc2cnc(-c3ccc(N4CCOCC4)cc3)cc21	9.31	> 10
COc1ccc(OC)c(CCNc2nc3cnc(-c4cccc(Oc5ccccc5)c4)cc3n2C)c1	0.52	1.51
O=C(NCC1CC1)c1cccc(C2(CNCc3ccc(F)c(Cl)c3)CC2)c1	> 10	> 10
COc1cc(-c2cc3c(cn2)nc(NCc2cccc(C)c2)n3C)ccc1O	> 10	> 10
O=C(Nc1cccc(Cl)c1)Nc1ccc2nc(Cc3ccccc3)nn2c1	2.79	3.2
CNc1nc2cnc(Nc3cccc(N(C)C)c3)cc2n1-c1ccccc1	> 10	> 10
Cn1c(Nc2ccccc2)nc2cnc(-c3ccc4c(c3)OCO4)cc21	> 10	> 10

SMILES	IC50 [µM]	IC90 [µM]
COc1ccc(C(=O)Nc2ccc3nc(-c4ccccc4)nn3c2)cc1OC	> 10	> 10
COc1cc(-c2cc3c(cn2)nc(NCc2cccc(C)c2)n3C)cc(OC)c1OC	8.23	> 10
Cn1c(NCC2CCCO2)nc2cnc(-c3cccc(Oc4ccccc4)c3)cc21 (stereo not given)	> 10	> 10
c1ccc(Oc2cccc(-c3ccc4nnc(-c5ccccc5)n4c3)c2)cc1	> 10	> 10
COc1ccc(C(=O)Nc2ccc3nc(-c4ccccc4OC)nn3c2)cc1OC	> 10	> 10
Cn1c(NCC2CC2)nc2cnc(-c3cccc(Oc4ccccc4)c3)cc21	5.67	> 10
CN(C)c1ccc(-c2nccc3n[nH]c(-c4cccc(OC(F)(F)F)c4)c23)cc1	> 10	> 10
CNc1nc2cnc(-c3ccccc3C)cc2n1-c1cccc(F)c1	> 10	> 10
COc1cc(-c2[nH]nc3ccnc(-c4cccc(OC(F)(F)F)c4)c23)cc(OC)c1OC	> 10	> 10
CNc1nc2cnc(-c3cccc(Oc4ccccc4)c3)cc2n1Cc1cccnc1	> 10	> 10
COCCn1cnc2cnc(Nc3cccc(F)c3)cc21	> 10	> 10
Cn1c(NCc2ccccc2)nc2cnc(Nc3ccc(F)cc3)cc21	> 10	> 10
COc1ccc(NC(=O)Nc2ccc3nc(-c4ccccc4OC)nn3c2)cc1OC	> 10	> 10
COc1cccc(-c2nc3ccc(NC(=O)Nc4cccc(C(C)=O)c4)cn3n2)c1	> 10	> 10
COc1ncccc1-c1cc2c(cn1)nc(NCc1cccc(C)c1)n2C	> 10	> 10
Cc1cccc(CNc2nc3cnc(-c4ccccc4)cc3n2C)c1	> 10	> 10
COc1cc(-n2cnc3cnc(Nc4cccc(C(F)(F)F)c4)cc32)cc(OC)c1OC	> 10	> 10
CNc1nc2cnc(Nc3ccc(SC)cc3)cc2n1Cc1ccc(OC)c(OC)c1	> 10	> 10
COc1cccc(-c2nccc3n[nH]c(-c4ccc(OC)cc4C)c23)c1	4.5	> 10
